Laboratory results published in US20130165368A1, “ANTIMICROBIAL COMPOUNDS” (priority 2010, published 2013).
Converted amounts (≈) assume the structure as drawn. Like-named read-outs stand apart in the source and are kept apart here.

Experiments:
Assay type in all cases: cell-based
[1] = system: Staphylococcus epidermidis; test: MIC agar dilution, micro-organism 14 (11047); conditions: Staphylococcus epidermidis 11047, read-out: MIC
Description: (§1) Throughout the period of testing the microbial strains were subcultured and incubated for 18-20 hours at 37° C. on a weekly basis. Horse blood agar plates were used to sustain the micro-organisms both prior to and throughout testing. The alkoxylated alkanols listed in Table II below were obtained (these are obtainable from Sigma-Aldrich Company Ltd, Dorset, England), each having a GC purity of at least 97%.
(§2) Molar equivalent concentrations were used to allow comparison between compounds of differing molecular mass. Due to weighing difficulties, any compound in solid form was melted in a water bath prior to dilution. To make ten-times strength concentrations, which takes into account agar dilution, 0.0352 mmol of each compound was weighed into plastic universal bottles and 4 mL of sterile distilled water (SDW) was added. To produce a homogenous emulsion the universals were vortexed; once achieved the emulsions were serial diluted by adding 2 mL to 2 mL of SDW.
(§3) Myristyl alcohol and lauryl alcohol were re-weighed and dissolved in 25 μL of the polar solvent 1-methyl-2-pyrrolidone (M6762; Sigma-Aldrich) in sterile glass universals due to an inability to achieve an even suspension. To maintain an even emulsion in the presence of SDW 37.5 μL of the non-ionic detergent Tween 20 (P1379, Sigma-Aldrich) was also added. 3.9375 mL of SDW was added to these, to create a 4 mL volume; they were vortexed and diluted as before.
(§4) For every 100 mL of Isosensitest agar (IST) (CM0471; Oxoid, Basingstoke, England), 3.1 g of the IST powder was added to 100 mL SDW (as per manufacturer's instructions) and sterilised for 15 minutes at 121° C. Once sterilised, the molten agar was cooled to 50° C. in a water-bath. Subsequently 4.8 g of CCEY powder (BC2160; Bioconnections, Wetherby, England), also known as Brazier's medium, was added to 100 mL SDW for every 100 mL of agar needed. This was then sterilised for 15 minutes at 121° C. Once sterilised the molten agar was cooled to 50° C. in a water-bath and 4 mL of egg-yolk emulsion (S2073; TCS Biosciences Ltd, Buckingham, United Kingdom) and 1 mL of lysed defibrinated horse blood (HB035; TCS Biosciences Ltd, Buckingham, United Kingdom) were also added for every 100 mL needed. Horse blood lysis is achieved by dilution to half concentration with SDW; when fully lysed the mixture will turn dark red in colour.
(§5) 18 mL agar was added to each universal and then poured into sterile Petri dishes. This step creates a 1/10 dilution resulting in agar plates of the required strength. Control plates for each set of strains were created by adding 18 mL of agar to 2 mL of SDW.
(§6) Suspensions of each bacterial species were prepared with a density equal to that of a 0.5 McFarland standard using a densitometer. All suspensions were made using sterile distilled water and fresh 18-20 hour cultures. As a 0.5 McFarland standard contains 1.5×10^8 CFU/mL and the multipoint inoculators applies 1 μL spots of liquid, each bacterial suspension was diluted 1/15 (20 μL suspension to 280 μL sterile distilled water).
(§7) Bacterial suspensions were prepared from fresh 18-24 hour cultures as previously described. 1 μL of each strain was inoculated onto all 100 agar plates containing a different chemical concentration and the 2 control plates. This was done using a multipoint inoculator which inoculates 20 strains per plate. All plates were incubated for 22 hours at 37° C. in aerobic conditions.
(§8) Each plate was examined for bacterial growth after 22 and 48 hours, with each being incubated in between examinations. A positive result was recorded as growth of ≧10 colonies. A negative result was recorded as growth of <10 colonies as this is equivalent to 99.9% inhibition. The lowest concentration of chemical that inhibited growth was recorded as the MIC. The results are recorded in Table IV below, where the numbers are quoted in mmol/L. […]

Steptococcus pyogenes = test: MIC agar dilution, micro-organism 11 (8306); conditions: Steptococcus pyogenes 8306, read-out: MIC
Description: as §1, §2, §3, §4, §5, §6, §7, §8

Candida glabrata = test: MIC agar dilution, micro-organism 20 (3943); conditions: Nakaseomyces glabratus, Candida glabrata 3943, read-out: MIC
Description: as §1, §2, §3, §4, §5, §6, §7, §8

Enterococcus faecium = test: MIC agar dilution, micro-organism 16 (7171); conditions: Enterococcus faecium 7171, read-out: MIC
Description: as §1, §2, §3, §4, §5, §6, §7, §8

Candida albicans = test: MIC agar dilution, micro-organism 19 (90028); conditions: Candida albicans 90028, read-out: MIC
Description: as §1, §2, §3, §4, §5, §6, §7, §8

Providencia rettgeri = test: MIC agar dilution, micro-organism 3 (7475); conditions: Providencia rettgeri 7475, read-out: MIC
Description: as §1, §2, §3, §4, §5, §6, §7, §8

[2] = system: Staphylococcus aureus (MRSA); test: MIC agar dilution, micro-organism 12 (11939); conditions: Staphylococcus aureus, MRSA, Staphylococcus aureus (MRSA) 11939, read-out: MIC
Description: as §1, §2, §3, §4, §5, §6, §7, §8

Enterococcus faecalis = test: MIC agar dilution, micro-organism 17 (775); conditions: Enterococcus faecalis 775, read-out: MIC
Description: as §1, §2, §3, §4, §5, §6, §7, §8

Bacillus subtilis = test: MIC agar dilution, micro-organism 18 (9372); conditions: Bacillus subtilis 9372, read-out: MIC
Description: as §1, §2, §3, §4, §5, §6, §7, §8

Listeria monocytogenes = test: MIC agar dilution, micro-organism 15 (11994); conditions: Listeria monocytogenes 11994, read-out: MIC
Description: as §1, §2, §3, §4, §5, §6, §7, §8

Staphylococcus aureus = test: MIC agar dilution, micro-organism 13 (6571); conditions: Staphylococcus aureus, Staphylococcus aureus 6571, read-out: MIC
Description: as §1, §2, §3, §4, §5, §6, §7, §8

Escherichia coli = test: MIC agar dilution, micro-organism 1 (10418); conditions: Escherichia coli 10418, read-out: MIC
Description: as §1, §2, §3, §4, §5, §6, §7, §8

| MIC ([1]; 22 hrs) | MIC ([1]; 48 hrs) | MIC (Steptococcus pyogenes; 22 h, 22 hrs) | MIC (Steptococcus pyogenes; 48 h, 48 hrs) | MIC (Candida glabrata; 22 h, 22 hrs) | MIC (Candida glabrata; 48 h, 48 hrs) | MIC (Enterococcus faecium; 22 hrs) | MIC (Enterococcus faecium; 48 hrs) | MIC (Candida albicans; 22 hrs) | MIC (Candida albicans; 48 hrs) | MIC (Providencia rettgeri; 22 hrs) | MIC (Providencia rettgeri; 48 hrs) | MIC ([2]; 22 h, 22 hrs) | MIC ([2]; 48 h, 48 hrs) | MIC (Enterococcus faecalis; 22 hrs) | MIC (Enterococcus faecalis; 48 hrs) | MIC (Bacillus subtilis; 22 hrs) | MIC (Bacillus subtilis; 48 hrs) | MIC (Listeria monocytogenes; 22 hrs) | MIC (Listeria monocytogenes; 48 hrs) | SMILES | further results |
| --- | --- | --- | --- | --- | --- | --- | --- | --- | --- | --- | --- | --- | --- | --- | --- | --- | --- | --- | --- | --- | --- |
| 110 µM (≈ 23.6 µg/mL) | 220 µM (≈ 47.2 µg/mL) | 220 µM (≈ 47.2 µg/mL) | 220 µM (≈ 47.2 µg/mL) | > 880 µM | > 880 µM | > 880 µM | 220 µM (≈ 47.2 µg/mL) | > 880 µM | > 880 µM | > 880 µM | > 880 µM | 110 µM (≈ 23.6 µg/mL) | 110 µM (≈ 23.6 µg/mL) | > 880 µM | 110 µM (≈ 23.6 µg/mL) | > 880 µM | > 880 µM | > 880 µM | > 880 µM | CCCCCCCCCCCCCCO [M0, 1-Tetradecanol, reference compound] | MIC (Staphylococcus aureus; 22 h, 22 hrs): 440 µM (≈ 94.3 µg/mL); MIC (Staphylococcus aureus; 48 h, 48 hrs): 440 µM (≈ 94.3 µg/mL); MIC (Escherichia coli; 22 hrs): > 880 µM; MIC (Escherichia coli; 48 hrs): > 880 µM |
| 220 µM (≈ 125 µg/mL) | 220 µM (≈ 125 µg/mL) | 550 µM (≈ 312 µg/mL) | 55 µM (≈ 31.2 µg/mL) | > 880 µM | > 880 µM | > 880 µM | > 880 µM | > 880 µM | > 880 µM | > 880 µM | > 880 µM | 440 µM (≈ 249 µg/mL) | 440 µM (≈ 249 µg/mL) | 55 µM (≈ 31.2 µg/mL) | 55 µM (≈ 31.2 µg/mL) | 110 µM (≈ 62.3 µg/mL) | 110 µM (≈ 62.3 µg/mL) | > 880 µM | > 880 µM | CCCCCCCCCCCCCCOCCOCCOCCOCCOCCOCCOCCOCCO [M8, Octaethylene Glycol Monotetradecyl Ether] | MIC (Staphylococcus aureus; 22 h, 22 hrs): 110 µM (≈ 62.3 µg/mL); MIC (Staphylococcus aureus; 48 h, 48 hrs): 110 µM (≈ 62.3 µg/mL); MIC (Escherichia coli; 22 hrs): > 880 µM; MIC (Escherichia coli; 48 hrs): > 880 µM |
| > 880 µM | > 880 µM | 880 µM (≈ 238 µg/mL) | 880 µM (≈ 238 µg/mL) | 880 µM (≈ 238 µg/mL) | 880 µM (≈ 238 µg/mL) | > 880 µM | > 880 µM | > 880 µM | > 880 µM | > 880 µM | > 880 µM | > 880 µM | > 880 µM | > 880 µM | > 880 µM | > 880 µM | > 880 µM | > 880 µM | > 880 µM | CCCCCCCCCCCCCCCCCCO [S0, 1-Octadecanol, reference compound] | MIC (Staphylococcus aureus; 22 h, 22 hrs): > 880 µM; MIC (Staphylococcus aureus; 48 h, 48 hrs): > 880 µM; MIC (Escherichia coli; 22 hrs): > 880 µM; MIC (Escherichia coli; 48 hrs): > 880 µM |
